Some results are limits rather than exact numbers.

As usually defined, the melting point is the temperature of the solid-liquid transition. The compound `O=C(CCc1ccc(Cl)cc1Cl)NC1N=C(C2CC2)c2ccccc2N(CC(F)(F)F)C1=O` (single isomer, unassigned; (+)) came in with a melting point of 64 to 66 °C. For the compound `Clc1ccc(C=CC=Cc2ccccc2)cc1`, the melting point came to 161 °C. Turning to `O=C1N(Cc2ccc(C(F)(F)F)o2)c2c(Cl)cccc2C12COc1cc3c(cc12)CCO3` (centres undefined), the melting point is 210 to 211 °C. Compound `COc1ccc(S(=O)(=O)Nc2ccc(Cl)nc2Nc2ccccc2)cc1` returned a melting point of 206 to 208 °C.

In the case of `CCCCNC(=O)OCCCC(=O)c1ccccc1`, the melting point fell in the range of 52 to 58 °C.

On to `COc1ccc(C#N)cc1/C=C/C(=O)O`, for which the melting point was 252 to 253 °C. For `O=C(NCCO)c1[nH]c2ccc(Cl)cc2c1S(=O)(=O)c1ccccc1` the value was 198 to 200 °C; for `OCCCC#Cc1ccc(C(=C2CCCCCC2)c2ccc(O)cc2)cc1`, 125 to 126 °C; for `O=C1OC(=O)c2cc(C#Cc3cccc4ccccc34)ccc21`, 220 to 222 °C. For `CC(C)(C)OC(=O)N[C@H]1CC[C@H](CCN2CCCC2)CC1` the value was 110 °C; for `O=Cc1ccc(NS(=O)(=O)c2ccccc2)cc1O`, 150 to 157 °C; for `CC(=O)NC(C(=O)NCc1ccccc1)c1cn(S(=O)(=O)N(C)C)cn1` (centres undefined), 145 to 147 °C.

Turning to `CCCN(CCC)C(=O)n1cnc(S(=O)(=O)CC(C)C)n1`, the melting point was 62 to 63.5 °C. Turning to `Nc1cc(Cl)ccc1C(=O)NCC1CCN(C(c2ccccc2)c2ccccc2)CC1`, the melting point lay in the range of 161 to 162 °C. Compound `COC(=O)c1cc2cc(OC)c(OC)cc2cn1` displayed a melting point of 215 °C. For `OCC1OC(n2cnc3c(Nc4ccccc4)cc(Cl)nc32)C(O)C1O` (centres undefined) the value was 157 to 160 °C. For `CCCCCCCCOc1cc2cc(C(=O)OC)c(C(=O)OC)c(-c3ccncc3)c2cc1OC` the value was 124 to 126 °C; for `N#Cc1ccccc1Sc1ccccc1N`, 86 to 89 °C; for `c1ccc(CNn2cnnc2-c2ccc(CN3CCCCCC3)s2)cc1`, 79 to 81 °C. For `O=C(O)CCCCCOc1ccc(OCc2ccccc2)cc1` the value was 100 to 101 °C; for `CCOC(=O)C(=O)Nc1cc(NC(=O)C(=O)OCC)c(OC)nc1OC`, 170 to 173 °C; for `O=C(NCCO)c1cccc(-c2ccc3[nH]cc(-c4ccc(Cl)cc4Cl)c3c2)c1`, 140 to 141 °C. As for `CCOC(=O)Nn1cccc1C(=O)c1ccccc1F`, the melting point was 78 to 80 °C.

Regarding `Cc1[nH]cnc1CSCCNc1ncc(Cc2ccn(C)c(=O)c2)c(=O)[nH]1`, the melting point was in the range of 202 to 204 °C. In the case of `COC(=O)C1=C(Cl)C(=NO)CC(c2ccc(Cl)c(OC)c2F)N1` (centres undefined), the melting point was 174 to 176 °C.

For `CC(C)(C)NCC(O)COc1cccc2[nH]c(=S)[nH]c12` (centres undefined), the melting point was 214 to 216 °C. For `COc1ccc(-n2nc(Sc3cc(C)ccc3C)c(C)c(C#N)c2=O)cc1` the value was 140 to 142 °C; for `COc1ccc(-c2c(Cl)ncnc2Cl)cc1`, 95 to 96 °C. For `O=C(O)c1[nH]c2cc(Cl)cc(Cl)c2c1NCS(=O)(=O)c1ccccc1` the value was 286 to 290 °C. On to `Cc1ccc(OC(=O)CCCC(=O)OOC(=O)CCCC(=O)Oc2ccc(C)cc2)cc1`, for which the melting point lay in the range of 24 to 30 °C. For `CCCCC1c2cc(NC(=O)CC(C)(C)C)c(C)c(C)c2OC1(C)C` (centres undefined) the value was 129 to 130 °C; for `Fc1ccc(F)c(C(Sc2ccc(Cl)cc2)c2cc(Cl)ncc2Cl)c1` (centres undefined), 128 to 129 °C; for `CCOC(=O)C(NC(=O)CCl)N(C(=O)CCl)c1cscn1` (centres undefined), 102 to 104 °C. For `Nc1c(NCCCO)c(=O)c1=O` the value was 256 to 258 °C; for `O=C(NCC12CC3CC(CC(C3)C1)C2)c1cccc(O)c1Cl`, 234 to 235 °C. For `O=C(NCCc1ccc(O)c(O)c1)OCc1ccccc1` the value was 129 to 130 °C; for `CC(=O)OCCN(C)Cc1cc(C(=O)c2cccs2)cc(C(C)(C)C)c1O`, 124 to 126 °C.

`COc1cccc(COc2ncc(F)c(NS(N)(=O)=O)n2)c1`: the melting point fell in the range of 126 to 130 °C. For `CNC(=O)c1ccc(N2CC(CNC(C)=S)OC2=O)cc1F` (centres undefined) the value was 176 to 177 °C. For `NC(=O)NCc1ccc(-c2ccc3oc([N+](=O)[O-])c(-c4ccccc4)c3c2)cc1` the value was 215 to 216 °C; for `COc1ccc(CC2NC(=O)NC2=O)cc1` (centres undefined), 174 °C. For `O=[N+]([O-])c1ccc(-c2nc3c(Cl)ncnc3o2)cc1` the value was 231 °C; for `O=C(O)c1ccc(OCCNC(=O)C2Cc3ccccc3N2S(=O)(=O)c2ccc(-c3cccc(C(F)(F)F)c3)cc2)c(Cl)c1` (centres undefined), 135 to 140 °C; for `Cc1cccc(-c2nc3cccnn3c2-c2ccnc(NC3CCCCC3)c2)c1`, 169 to 170 °C. As for `O=C1C2=C(NCCC2)N(c2ccccc2)C2=NCCN12`, the melting point lay in the range of 248 to 250 °C. For `Cc1nc(Nc2ccc(F)cc2)nc(Cl)c1C` the value was 114 °C. For `COC(=O)c1ccc(NC(=O)c2sc3ccc(OC)cc3c2SC(C)C)cc1` the value was 158 °C; for `CC(C)N1C(=O)NC(c2cnc3ccccc3c2)c2cc3c(cc21)OCO3` (centres undefined), 202 to 205 °C; for `CC1(C)OC(=S)Nc2ccc(-c3cccc(C#N)c3)cc21`, 236 to 237 °C. For `CC(C)n1c(=O)[nH]c2cccc(OCc3ccccc3)c21` the value was 224 °C. For the compound `CCOC(=O)c1cc2c(nc(C)n2C)c2c1C(=O)CC1(Cc3ccccc3C1)N2`, the melting point was 205 to 206 °C. For `N#Cc1ccc(CCC(=O)c2c(O)c3cccnc3n(-c3ccccc3)c2=O)cc1` the value was 248 to 249 °C.

Regarding `Nc1ncc(-c2noc(-c3cnn4c(C(F)(F)F)cc(-c5ccc(Cl)cc5)nc34)n2)cn1`, the melting point amounted to 268 °C. For `O=c1[nH]c2cc(Cl)ccc2c(=O)c(-c2ccc([N+](=O)[O-])cc2)c1O` the value was 310 to 312 °C. For `CC(C)OC(=O)Nc1cccc(-c2ccnc3c(C(=O)c4ccco4)cnn23)c1` the value was 140 to 143 °C. For `N#Cc1cnn(-c2ccc(OC(F)(F)F)cc2Cl)c1Br` the value was 83 °C. In turn, `CN(C)CC=NC(=O)c1cnn2c(-c3cccnc3)ccnc12` displayed a melting point of 124 to 127 °C. For `COCc1cc2c(C(=O)Nc3c(C)noc3C)ccc(OC)c2o1` the value was 168 to 170 °C. For `NC(=O)c1cn(Cc2ccccc2F)cn1` the value was 204 to 205 °C; for `O=C(O)Cc1csc(-c2ncccc2O)n1`, 175 to 176 °C; for `CCOc1cc2c(c3c1OC(C)(C)C3)C(c1cccc(C(=O)NC)c1)=NC(C)(C)C2=O`, 233 to 235 °C. On to `N=C(NO)C1=Cc2cc(O)c(O)cc2CC1`, for which the melting point fell in the range of 183 to 185 °C. For `COc1ccc(CCNS(=O)(=O)Cc2ccc3[nH]cc(CCN(C)C)c3c2)cc1` the value was 67 to 70 °C; for `CCCCOc1nsnc1S(C)(=O)=O`, 39 to 40 °C; for `CCC(O)c1ccc(Cl)c2nc3n(c12)CCCN3c1ccc(Cl)cc1Cl` (centres undefined), 233 to 235 °C. For `COC(=O)[C@@H]1[C@H](c2ccccc2)CC(=O)N1C` the value was 100 °C; for `COc1cc2c(cc1Nc1ncc(Cl)c(N[C@H]3[C@@H](C(N)=O)[C@@H]4C=C[C@H]3C4)n1)CCN(C[C@H](O)C(F)(F)F)CC2`, 120 to 126 °C; for `CCC(OCc1ccc(-c2ccc(Cl)cc2)cc1)(C(=O)O)c1ccccc1` (centres undefined), 128 to 130 °C.

Compound `COc1cccc(OC(=O)/C=C/c2ccc(C(C)(C)C)cc2)c1` came in with a melting point of 83 °C. For `O=C1NC(=O)C(Cc2ccc(SCc3ccccc3)cc2)S1` (centres undefined) the value was 102 to 103 °C; for `COc1ccc(CN(CCN(C)CCCNC(=O)NCCSCc2csc(NC(=N)N)n2)c2ccccn2)cc1`, 106 to 109 °C; for `CCC1(CC(=O)O)OCC(=O)c2c1[nH]c1ccccc21` (centres undefined), 235 to 238 °C. For `O=C1C[C@H]2CCN(Cc3ccccc3)C[C@H]2c2ccc(F)cc21` (relative stereo) the value was above 220 °C; for `CN1CCN(Cc2c(O)c(O)c(O)c3c(=O)cc(-c4ccccc4)oc23)CC1`, 280 to 282 °C. Compound `CC(=O)c1nn(-c2c(Cl)cc(C(F)(F)F)cc2Cl)c(N)c1S(=O)(=O)c1ccc(Cl)cc1` yielded a melting point of 158 °C. For `O=C1c2ccccc2C(=O)N1CC1CCC2CN(c3ccccn3)CCN2C1` (centres undefined) the value was 167 to 168 °C; for `CC=CCn1c(C)c(C)c2cnnc(OCc3ccccc3)c21`, 81 to 84 °C; for `Cc1ccccc1CNc1cc(C(=O)N(C)C)cc2c1nc(C)n2C`, 158 to 159 °C. For `O=C1CC[C@@H]2CCc3ccccc3[C@@H]2CN1Cc1ccccc1` (relative stereo) the value was 114 to 115 °C; for `CCCCc1nc2c(N)nc3ccccc3c2n1CCCCNC(=O)c1ccccc1`, 174 to 175 °C. For `O=C(c1ccc(Cl)cc1)c1cncnc1` the value was 110 to 112 °C; for `COC(=O)c1cc2cc(OC)c(OC)cc2c(-c2cccnc2)c1C(=O)OC`, 95 to 96 °C. Regarding `N#Cc1cnc2c(sc3ccc([N+](=O)[O-])cc32)c1O`, the melting point is above 305 °C. For `COc1cccc(C2(C(C)(C)O)CCN(C)CC2)c1` the value was 100 °C. In turn, `COC(=O)c1ccc2c(c1)Sc1cc3c(cc1CC2)CCC3` gave a melting point of 110 to 111 °C.

Consider `N#Cc1ccc2c(c1)C(=O)c1cccn1CC2`, for which the melting point lay in the range of 127 to 128 °C. Take `O=C(Nc1cccc2c1C(=O)c1c-2n[nH]c1C1CCN(C(=O)N2C[C@@H]3C[C@H]2CN3)CC1)NN1CCOCC1`: the melting point lay within 196 to 198 °C. For `CC(C)(C)C(=O)N1CCN(c2ccc(C(=O)CSc3ccnc4ccccc34)cc2)CC1` the value was 174 to 176 °C. For `CSc1ccc(NC(=N)c2ccc(C(F)(F)F)cc2)cc1` the value was 144 to 146 °C.
